# Data reported in article PMC3324464, “The GPI Anchor Signal Sequence Dictates the Folding and Functionality of the Als5 Adhesin from Candida albicans” (PLoS ONE, 2012).
# Like-named read-outs stand apart in the source and are kept apart here. Ends that are not written are not given here.
# What was measured:
# GST-Als5 = target: T1, GST-Als5 (Candida albicans, UniProt Q5A8T7); assay: biochemical; type: binding; conditions: for Kd: 0.02 mg/ml protein, excitation 295 nm, one-site saturation model
# T1 construct: made in house; host or cells: E. coli BL21(DE3)
# Protocol: (§1) Binding of GST-Als5 and GST-Als5-SS proteins to different peptides was monitored by fluorescence emission spectroscopy. Freshly purified samples of protein were used each time. 0.02 mg/ml of the proteins were taken and the tryptophan-specific emission spectra were monitored between 310 nm to 400 nm by excitation at 295 nm. The peptides were titrated into the protein solutions, incubated for 5 minutes after each addition, and emission spectra recorded. Both excitation and emission bandwidths were fixed at 5 nm and all spectra were averages of 5 scans. All spectra were corrected for buffer and peptide backgrounds.
# (§2) All binding data were analyzed using a one-site saturation model. Binding studies were done at different temperatures, and ΔG^o for the protein-peptide interactions calculated using the equation: ΔG^o = –RTlnKa. ΔH^o and ΔS^o were obtained from the slope and intercept of the van’t Hoff plots according to the equation: [drawing 1]
# (§3) The change in fluorescence emission intensity upon titration with the peptide ligands was monitored (see Figures S8A, S8C, S8E, S8G and Figures S9A, S9C, S9E, S9G, respectively) and the binding plots obtained (Figures S8B, S8D, S8F, S8H and Figures S9B, S9D, S9F, S9H, respectively) were used to calculate dissociation constants (Kd) for the interaction (Table 1).
# Supplementary file pone.0035305.s008.tif: Figure S8 Binding of GST-Als5 with different peptides. A, C, E and G show representative fluorescence spectra obtained upon binding of GST-Als5 with the peptide EHAHTPR at 15 °C, 27 °C, 37 °C and 47 °C, respectively. B, D, F and H represent the binding plots of GST-Als5 with different peptides at 15 °C, 27 °C, 37 °C and 47 °C, respectively. Each data point gives the average of three independent measurements done in duplicates and the error bars denote standard deviations. Spectra 1–7 represent binding of peptides with GST-Als5 in the following order of increasing concentrations of the peptides: 1: no peptide; 2: 0.037 µM; 3: 0.074 µM; 4: 0.443 µM; 5: 0.804 µM; 6: 1.154 µM; 7: 1.5 µM. (TIF) Click here for additional data file.
# GST-Als5-SS = target: T2, GST-Als5-SS (Candida albicans, UniProt Q5A8T7); assay: biochemical; type: binding
# T2 construct: made in house; host or cells: E. coli BL21(DE3)
# Protocol: as §1, §2
# as §3, with “1). […]” for “1).”
# [1] = 27 °C, N.B. = no binding observed, average of three independent measurements in duplicates
# [2] = 15 °C, N.B. = no binding observed, emission 310-400 nm, average of three independent measurements in duplicates
# [3] = Kd, 37 °C, average of three independent measurements in duplicates
# [4] = Kd, 47 °C, N.B. = no binding observed, average of three independent measurements in duplicates
# [5] = 15 °C, N.B. = no binding observed, 0.02 mg/ml protein, excitation 295 nm, emission 310-400 nm, one-site saturation model, average of three independent measurements in duplicates
# [6] = Kd, 27 °C, N.B. = no binding observed, 0.02 mg/ml protein, excitation 295 nm, one-site saturation model, average of three independent measurements in duplicates
# [7] = Kd, 37 °C, 0.02 mg/ml protein, excitation 295 nm, one-site saturation model, average of three independent measurements in duplicates
# [8] = Kd, 47 °C, N.B. = no binding observed, 0.02 mg/ml protein, excitation 295 nm, one-site saturation model, average of three independent measurements in duplicates
# T1 sequence (Q5A8T7 1-1327): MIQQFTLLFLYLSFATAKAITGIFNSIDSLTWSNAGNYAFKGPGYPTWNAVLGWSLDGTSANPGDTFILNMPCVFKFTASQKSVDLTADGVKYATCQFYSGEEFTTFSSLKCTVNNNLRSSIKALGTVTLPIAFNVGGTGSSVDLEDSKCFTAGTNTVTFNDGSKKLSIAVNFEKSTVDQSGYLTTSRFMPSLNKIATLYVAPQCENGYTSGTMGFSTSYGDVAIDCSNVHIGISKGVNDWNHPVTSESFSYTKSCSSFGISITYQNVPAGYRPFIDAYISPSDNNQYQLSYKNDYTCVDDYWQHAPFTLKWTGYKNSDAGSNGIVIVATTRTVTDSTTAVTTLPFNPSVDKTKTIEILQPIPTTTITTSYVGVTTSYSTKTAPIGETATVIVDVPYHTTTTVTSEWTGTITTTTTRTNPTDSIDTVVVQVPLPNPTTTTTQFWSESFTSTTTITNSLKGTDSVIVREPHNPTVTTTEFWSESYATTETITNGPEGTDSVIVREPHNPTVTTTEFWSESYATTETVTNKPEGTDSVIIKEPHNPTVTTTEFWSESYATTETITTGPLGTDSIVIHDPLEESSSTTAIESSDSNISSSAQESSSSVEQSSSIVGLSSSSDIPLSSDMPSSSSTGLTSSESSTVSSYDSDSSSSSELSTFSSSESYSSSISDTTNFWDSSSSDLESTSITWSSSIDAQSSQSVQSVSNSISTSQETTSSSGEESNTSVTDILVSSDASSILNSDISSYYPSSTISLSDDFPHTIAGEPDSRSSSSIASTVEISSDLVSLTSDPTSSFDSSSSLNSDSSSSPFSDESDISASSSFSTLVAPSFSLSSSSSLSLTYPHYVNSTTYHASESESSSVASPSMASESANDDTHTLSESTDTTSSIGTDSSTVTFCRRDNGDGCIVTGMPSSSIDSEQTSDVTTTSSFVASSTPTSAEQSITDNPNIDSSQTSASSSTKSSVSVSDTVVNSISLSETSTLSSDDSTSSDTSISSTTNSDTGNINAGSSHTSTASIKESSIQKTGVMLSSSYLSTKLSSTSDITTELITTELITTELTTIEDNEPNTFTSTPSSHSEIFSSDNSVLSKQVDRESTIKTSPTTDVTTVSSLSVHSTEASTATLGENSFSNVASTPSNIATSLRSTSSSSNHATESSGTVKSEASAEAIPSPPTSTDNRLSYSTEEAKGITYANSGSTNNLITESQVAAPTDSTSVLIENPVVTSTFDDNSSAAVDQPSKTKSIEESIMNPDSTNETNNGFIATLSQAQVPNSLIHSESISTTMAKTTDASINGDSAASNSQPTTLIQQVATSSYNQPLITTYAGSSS
# T2 sequence (Q5A8T7 whole entry): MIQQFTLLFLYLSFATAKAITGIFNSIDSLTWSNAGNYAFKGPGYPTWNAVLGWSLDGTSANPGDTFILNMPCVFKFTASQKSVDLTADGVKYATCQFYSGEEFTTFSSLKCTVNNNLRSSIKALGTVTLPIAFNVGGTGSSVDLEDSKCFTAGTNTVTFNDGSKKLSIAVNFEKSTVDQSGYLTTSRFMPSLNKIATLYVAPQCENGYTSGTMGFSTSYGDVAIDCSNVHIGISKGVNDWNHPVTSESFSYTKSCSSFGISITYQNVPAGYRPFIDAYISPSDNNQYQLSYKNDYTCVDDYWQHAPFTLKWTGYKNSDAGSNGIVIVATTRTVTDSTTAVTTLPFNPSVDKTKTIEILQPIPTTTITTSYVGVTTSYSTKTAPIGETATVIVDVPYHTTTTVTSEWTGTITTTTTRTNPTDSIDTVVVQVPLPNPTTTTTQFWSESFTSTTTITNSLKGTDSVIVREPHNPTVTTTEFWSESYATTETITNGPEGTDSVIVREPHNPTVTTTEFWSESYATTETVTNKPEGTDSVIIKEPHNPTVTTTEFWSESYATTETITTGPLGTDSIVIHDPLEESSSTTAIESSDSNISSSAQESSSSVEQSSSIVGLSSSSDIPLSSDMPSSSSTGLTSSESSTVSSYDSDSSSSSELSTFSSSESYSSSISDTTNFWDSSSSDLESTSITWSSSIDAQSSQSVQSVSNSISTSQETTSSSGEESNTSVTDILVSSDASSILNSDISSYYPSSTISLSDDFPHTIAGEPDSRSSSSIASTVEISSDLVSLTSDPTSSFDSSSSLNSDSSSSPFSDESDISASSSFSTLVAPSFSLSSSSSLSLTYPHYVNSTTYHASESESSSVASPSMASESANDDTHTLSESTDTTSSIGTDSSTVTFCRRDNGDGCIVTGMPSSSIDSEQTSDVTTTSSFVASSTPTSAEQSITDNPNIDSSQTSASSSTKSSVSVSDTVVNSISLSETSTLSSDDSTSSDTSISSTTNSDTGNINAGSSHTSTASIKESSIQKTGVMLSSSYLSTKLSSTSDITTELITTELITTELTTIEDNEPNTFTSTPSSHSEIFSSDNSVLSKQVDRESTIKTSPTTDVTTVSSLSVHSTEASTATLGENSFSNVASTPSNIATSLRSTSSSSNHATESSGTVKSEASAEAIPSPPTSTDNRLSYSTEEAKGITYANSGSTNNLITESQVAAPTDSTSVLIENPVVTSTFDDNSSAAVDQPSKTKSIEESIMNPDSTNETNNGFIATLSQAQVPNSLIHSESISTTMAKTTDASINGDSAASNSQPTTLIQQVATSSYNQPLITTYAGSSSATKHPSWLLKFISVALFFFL
Substance,binding (in words) (GST-Als5; 27 °C and 47 °C),Kd (GST-Als5; [1]),"Kd (GST-Als5; 47 °C, N.B. = no binding observed, average of three independent measurements in duplicates)",binding (in words) (GST-Als5-SS; 27 °C and 47 °C),"Kd (GST-Als5-SS; 27 °C, N.B. = no binding observed, 0.02 mg/ml protein, excitation 295 nm, one-site saturation model, average of three independent measurements in duplicates)","Kd (GST-Als5-SS; 47 °C, N.B. = no binding observed, 0.02 mg/ml protein, excitation 295 nm, one-site saturation model, average of three independent measurements in duplicates)",Kd (GST-Als5; [2]),Kd (GST-Als5; [3]) [nM],Kd (GST-Als5; [4]) [nM],"Kd (GST-Als5; Kd, 52 °C (secondary structure of protein mildly perturbed)) [nM]",Kd (GST-Als5-SS; [5]),Kd (GST-Als5-SS; [6]) [nM],Kd (GST-Als5-SS; [7]) [nM],Kd (GST-Als5-SS; [8]) [nM],"Kd (GST-Als5; Kd, 42 °C) [nM]",Kd (GST-Als5-SS) [nM]
VSPIRLK [scrambled peptide],showed no affinity for either of the protein variants,N.B.,N.B.,showed no affinity for either of the protein variants,N.B.,N.B.,,,,,,,,,,
KLRIPSV [KLRIPSV],,N.B.,,,,,N.B.,34 ± 12,7 ± 3,7 ± 2,N.B.,53 ± 6,17 ± 5,14 ± 2,,
AYKSLMT [AYKSLMT],,N.B.,,,,,N.B.,13 ± 7,13 ± 6,,N.B.,77 ± 2,6 ± 0.2,9 ± 2,9 ± 4,
EHAHTPR [EHAHTPR],,N.B.,,,,,N.B.,160 ± 38,34 ± 11,,,82 ± 16,44 ± 4,25 ± 9,34 ± 8,65 ± 13
